No end group written: not given here.
How the values were obtained:
[1] = test system: Red Blood Cells (RBCs); assay: Human red blood cell hemolysis assay (hemoglobin release)
Protocol: Human Red Blood hemolysis assay was carried out as described below.
About 5 ml human blood from healthy individuals were transferred into a 50 ml centrifuge tube and either re-suspended in 35 ml buffer pH 5.4 (150 mM NaCl, 20 mM MES) or pH 7.5 (150 mM NaCl, 20 mM Hepes). Red Blood Cells (RBCs) were washed 3 times with the appropriate buffer and finally re-suspended in a total of 50 ml buffer (pH 5.4 or 7.5). For the assay 175 μl of buffer solution (pH 5.4 or 7.5) was added into each well of a clear-bottom 96-well plate followed by 50 μl of re-suspended RBCs (approx. 2.5×10^7 cells) in the appropriate buffer (for RBC transfer wide bore pipet tips were used to avoid cell damage). Test PSPF peptides (New England Peptide TM) at the appropriate concentration were diluted in 25 μl PBS and then added to the cells. All steps were done with chilled buffers and on ice. The suspension was then mixed 6-8 times by pipetting with wide bore tips, the plate was covered and incubated at 37° C. for indicated time.
After incubation the cells were centrifuged for 5 min at 500×g and 150 μl of the supernatant was transferred into a new 96-well clear-bottom plate. Absorbance at 541 nm was measured and hemolysis was normalized to RBCs which have been incubated in the presence of 1% Triton X-100 (100% hemolysis).
Red blood cell (RBC) lysis assays was used to screen the functional efficacy of the PSPF peptides upon delivery (Table 5). The release of ATP, miRNA and hemoglobin has been studied at both pH 7.5 and 5.4.
A desirable peptide should also negate membrane disruption, as assessed by leakage of proteins such as hemoglobin at both pH values. Therefore the peptides were first screened for hemolytic activity at both pH 7.5 and pH 5.4.

[2] = siRNA co-transfection assay, cell viability; format: cell-based; parameters: concentration or dose not given beside the values; details: co-transfection of peptide and siRNA
Text: The protocol and siRNA reagent (target SSB gene) described in the following publication was followed: Bartz R, Fan H, Zhang J, Innocent N, Cherrin C, Beck S C, Pei Y, Momose A, Jadhav V, Tellers D M, Meng F, Crocker L S, Sepp-Lorenzino L, Barnett S F. Effective siRNA delivery and target mRNA degradation using an amphipathic peptide to facilitate pH-dependent endosomal escape. Biochem J. 2011; 435:475-87.

[3] = molecular target: the molecule itself; assay: CD thermal denaturation of the hexamer, Gibbs-Helmholtz fit, pH 7.4
Protocol: (§1) Furthermore, thermal denaturation by circular dichroism (CD) was used to study the thermal stability of the PSPF-EKG hexamer at multiple concentrations (2 μM, 4 μM and 20 μM), and at both pH 7.4 (FIG. 8A) and pH 5.5 (FIG. 8B). For each pH, to the curves were analyzed according to the Gibbs-Helmholtz Equation, using global least squares fitting of ΔHm, Tm and baselines. Tm was chosen as a global parameter defined with a reference concentration of 4 μM. ΔCp was also included, but over the range of experimental data examed, this parameter was not well defined.

[4] = molecular target: the molecule itself; assay: size exclusion chromatography, self-association, pH 7.4 (Table 7 prints 6.6)
Protocol: Size exclusion chromatography (SEC) of 100 μM PSPF-EKG and 100 μM PSPF-DKG were measured by AKTA FPLC machine (GE) using a Superdex 75 column (GE) eluted at pH 7.4 (50 mM Tris, 150 mM NaCl) and pH 5.5 (50 mM MES, 150 mM NaCl) respectively, at 25° C. Four standards were used: blue dextran (2,000,000 g/mol), carbonic anhydrase (29,000 g/mol), cytochrome C (12,400 g/mol) and aprotinin (6,500 g/mol). In order to test the effect of salt concentration upon peptide elution, the elutions of PSPF-EKG were also measured at pH 7.4 (50 mM Tris, 2M NaCl) and pH 5.5 (50 mM MES, […]), respectively.
Size exclusion chromatography—The association state of the PSPF peptide PSPF-EKG was initially investigated by size exclusion chromatography (SEC) using a Superdex 75 column (GE Healthcare) eluted at pH 7.4 (150 mM NaCl, 50 mM Tris) and pH 5.5 (150 mM NaCl, 50 mM MES) respectively. In addition, PSPF-DKG was also investigated to determine the effect of substituting Asp for Glu on the stability of the water-soluble bundle at each pH. To determine the approximate oligomerization states, four standards were used, shown by blue eluting peaks in FIG. 4: blue dextran (2,000,000 g/mol), carbonic anhydrase (29,000 g/mol), cytochrome C (12,400 g/mol) and aprotinin (6,500 g/mol).

[5] = molecular target: the molecule itself; assay: CD thermal denaturation of the hexamer, Gibbs-Helmholtz fit, pH 5.5
Protocol: as §1

[6] = pH 5.4, compared to triton-x-100
[7] = pH 7.5, compared to triton-x-100

Molecule	Hemoglobin Release [1, 6]	Hemoglobin Release [1, 7]	viability [2]	Hemoglobin Release ([1]; pH 5.4)	Hemoglobin Release ([1]; pH 7.5)	[PSPF-EKG] at 50% fold and 300 K [3]	apparent molecular weight, fold of calculated molecular weight [4]	[PSPF-EKG] at 50% fold and 300 K [5]
WSDLAKALSDLAKALSDLAKALSDLAKA [PSPF-DKA, WSDLAKA LSDLAKA LSDLAKA LSDLAKA]	none	none	101%					
WSDLAKGLSDLAKGLSDLAKGLSDLAKG [PSPF-DKG, WSDLAKG LSDLAKG LSDLAKG LSDLAKG]	none	none	104%					
WSDLAQALSDLAQALSDLAQALSDLAQA [PSPF-DQA, WSDLAQA LSDLAQA LSDLAQA LSDLAQA]	none	none	100%					
WSDLAQGLSDLAQGLSDLAQGLSDLAQG [PSPF-DQG, WSDLAQG LSDLAQG LSDLAQG LSDLAQG]	none	none	98%					
WSELAKALSELAKALSELAKALSELAKA [PSPF-EKA, WSELAKA LSELAKA LSELAKA LSELAKA]			105%	none	none			
WSELAKGLSELAKGLSELAKGLSELAKG [PSPF-EKG, WSELAKG LSELAKG LSELAKG LSELAKG]			102%					
WSELAQALSELAQALSELAQALSELAQA [PSPF-EQA, WSELAQA LSELAQA LSELAQA LSELAQA]			103%	none	none			
WSELAQGLSELAQGLSELAQGLSELAQG [PSPF-EQG, WSELAQG LSELAQG LSELAQG LSELAQG]			105%	none	none			
WSHLAKALSHLAKALSHLAKALSHLAKA [PSPF-HKA, WSHLAKA LSHLAKA LSHLAKA LSHLAKA]			97%	none	none			
WSHLAKGLSHLAKGLSHLAKGLSHLAKG [PSPF-HKG, WSHLAKG LSHLAKG LSHLAKG LSHLAKG]			102%	none	none			
WSHLAQALSHLAQALSHLAQALSHLAQA [PSPF-HQA, WSHLAQA LSHLAQA LSHLAQA LSHLAQA]			105%	none	none			
WSHLAQGLSHLAQGLSHLAQGLSHLAQG [PSPF-HQG, WSHLAQG LSHLAQG LSHLAQG LSHLAQG]			104%	none	none			
WSELAKGLSELAKGLSELAKGLSELAKG [PSPF-EKG]						0.14 µM	6.5 fold	0.31 µM
